Reference: article PMC10487436, “Towards Anticancer and Antibacterial Agents: Design and Synthesis of 1,2,3-Triazol-quinobenzothiazine Derivatives” (International Journal of Molecular Sciences, 2023)

Experiments:
[1] = test system: Enterococcus faecalis ATCC 29213; assay: MIC, microtitration broth method, EF; type: cell-based; conditions: ATCC29213, 24 h at 37 °C
[2] = test system: vancomycin-resistant E. faecalis VRE 368; assay: MIC, microtitration broth method, VRE2; type: cell-based; conditions: Enterococcus faecalis, 24 h at 37 °C
Experimental: (§1) In vitro antibacterial activity of the synthesized compounds was evaluated against representatives of multidrug-resistant bacteria, three clinical isolates of methicillin-resistant S. aureus: clinical isolates of animal origin, MRSA 63718 (Department of Infectious Diseases and Microbiology, Faculty of Veterinary Medicine, University of Veterinary Sciences Brno, Czech Republic), carrying the mecA gene; and MRSA SA 630 and MRSA SA 3202 [52] (National Institute of Public Health, Prague, Czech Republic), both of human origin. […] Vancomycin- and methicillin-susceptible S. aureus ATCC 29213 and vancomycin-susceptible Enterococcus faecalis ATCC 29212, obtained from the American Type Culture Collection, were used as the reference and quality control strains. Three vanA gene-carrying vancomycin-resistant isolates of E. faecalis (VRE 342B, VRE 368, VRE 725B) were provided by Oravcova et al..
(§2) The minimum inhibitory concentrations (MICs) were evaluated by the microtitration broth method according to the CLSI, with some modifications. The compounds were dissolved in DMSO (Sigma, St. Louis, MO, USA) to obtain a concentration of […] and diluted in a microtitration plate in an appropriate medium, i.e., Cation Adjusted Mueller–Hinton Broth (CaMH, Oxoid, Basingstoke, UK) for staphylococci, and Brain Heart Infusion Broth (BHI, Oxoid) for enterococci, to reach the final concentration of 256–0.125 µg/mL. Microtiter plates were inoculated with test micro-organisms so that the final concentration of bacterial cells was 10^5. […] A drug-free control and a sterility control were included. The plates were incubated for 24 h at 37 °C for staphylococci and enterococci. […] The experiments were repeated three times.

[3] = test system: NHDF (normal human dermal fibroblasts); assay: WST-1 proliferation assay, NHDF; type: cell-based; conditions: Homo sapiens, NHDF, normal cells, 72 h exposure
Experimental: (§3) Compounds were evaluated for their antiproliferative activity using three cultured cell lines: A549 (human lung carcinoma, ATCC, Manassas, VA, USA), SNB-19 (human glioblastoma, DSMZ, German Collection of Microorganisms and Cell Cultures), T-47D (human breast cancer, ATCC, Manassas, VA, USA), and NHDF (normal human dermal fibroblasts, ATCC, Manassas, VA, USA). The cultured cells were kept at 37 °C and 5% CO2. The cells were seeded (1 × 10^4 cells/well/100 μL DMEM supplemented with 10% FCS, streptomycin, and penicillin) using 96-well plates (corning). Cells were counted in a hemocytometer (Burker chamber) using a phase contrast Olympus IX50 microscope equipped with a Sony SSC-DC58 AP camera and an Olympus DP10 digital camera.
(§4) The antiproliferative effect of the compounds exerted on cancer and normal cells was determined using the Cell Proliferation Reagent WST-1 assay (Roche Molecular Biochemicals, Mannheim, Germany). This assay is based on a colorimetric method using the enzymatic ability of viable cells to cause the bright, red-colored stable tetrazolium monosodium salt [2-(4-iodophenyl)-3-(4-nitrophenyl)-5-(2,4-disulfophenyl)–2H-tetra-zolium] to transform into the dark, red-colored soluble formazan. […] An increase in the amount of formazan dye formed correlated with the number of metabolically active cells in the culture. The formazan dye produced by metabolically active cells was quantified by absorbance readings at appropriate wavelengths. The examined cells were exposed to the tested compounds (1 mM DMSO stock) for 72 h at various concentrations (0.1–100 μM). The control was performed in order to eliminate the DMSO effect at the concentration used. Cell cultures were incubated with WST-1 (10 μL) for 1 h. The absorbance of the samples was measured against a background control at 450 nm using a microplate reader with a reference wavelength at 600 nm. The obtained results are expressed as the means of at least two independent experiments performed in triplicate. The antiproliferative activity of the tested compounds was compared to that of cisplatinum. The values of IC50 (a concentration of a compound that is required for 50% inhibition) were calculated from the dose-response relationship with respect to control. The results were reported as the mean (±std) of three separate experiments.

[4] = test system: Mycobacterium smegmatis ATCC 700084; assay: MBC, agar aliquot subculture method, MS; type: cell-based; conditions: Mycolicibacterium smegmatis, ATCC700084
Experimental: (§5) For the above-mentioned strains/isolates, the agar aliquot subculture method was used as a test for bactericidal agents. After the MIC value determination, the inoculum was transferred to CaMH (Oxoid) for staphylococci, BHI (Oxoid) for enterococci, and Middlebrook 7H9 (Difco) for mycobacteria medium using a multipoint inoculator. As indicated above, the plates were incubated on a thermostat at 37 °C for the appropriate time for each micro-organism. The lowest concentration of test compound at which ≤5 colonies were obtained was then evaluated as MBC, corresponding to a 99.9% decrease in CFU relative to the original inoculum.

[5] = test system: vancomycin-resistant E. faecalis VRE 725B; assay: MIC, microtitration broth method, VRE3; type: cell-based; conditions: Enterococcus faecalis, 24 h at 37 °C
Experimental: as §1, §2

[6] = test system: vancomycin-resistant E. faecalis VRE 342B; assay: MIC, microtitration broth method, VRE1; type: cell-based; conditions: Enterococcus faecalis, 24 h at 37 °C
Experimental: as §1, §2

[7] = test system: Mycobacterium smegmatis ATCC 700084; assay: MIC, broth dilution micro-method, MS; type: cell-based; conditions: Mycolicibacterium smegmatis, ATCC700084, 72 h; 3 days at 37 °C
[8] = test system: methicillin-resistant S. aureus 63718; assay: MIC, microtitration broth method, MRSA3; type: cell-based; conditions: Staphylococcus aureus; 24 h at 37 °C
Experimental: as §1, §2

[9] = test system: methicillin-resistant S. aureus 63718; assay: MBC, agar aliquot subculture method, MRSA3; type: cell-based; conditions: Staphylococcus aureus
Experimental: as §5

[10] = test system: SNB-19 (human glioblastoma); assay: WST-1 proliferation assay, SNB-19; type: cell-based; conditions: Homo sapiens, SNB-19, 72 h exposure
Experimental: as §3, §4

[11] = test system: Staphylococcus aureus ATCC 29213; assay: MIC, microtitration broth method, SA; type: cell-based; conditions: ATCC29213, 24 h at 37 °C
Experimental: as §1, §2

[12] = test system: Mycobacterium marinum CAMP 5644; assay: MIC, broth dilution micro-method, MM; type: cell-based; conditions: CAMP5644, 504 h, 21 days at 28 °C
[13] = test system: A549 (human lung carcinoma); assay: WST-1 proliferation assay, A549; type: cell-based; conditions: Homo sapiens, A549, 72 h exposure
Experimental: as §3, §4

[14] = test system: methicillin-resistant S. aureus SA 3202; assay: MIC, microtitration broth method, MRSA1; type: cell-based; conditions: Staphylococcus aureus; 24 h at 37 °C
Experimental: as §1, §2

[15] = test system: Mycobacterium marinum CAMP 5644; assay: MBC, agar aliquot subculture method, MM; type: cell-based; conditions: CAMP5644
Experimental: as §5

[16] = test system: methicillin-resistant S. aureus SA 630; assay: MIC, microtitration broth method, MRSA2; type: cell-based; conditions: Staphylococcus aureus; 24 h at 37 °C
Experimental: as §1, §2

[17] = test system: methicillin-resistant S. aureus SA 3202; assay: MBC, agar aliquot subculture method, MRSA1; type: cell-based; conditions: Staphylococcus aureus
Experimental: as §5

[18] = test system: Staphylococcus aureus ATCC 29213; assay: MBC, agar aliquot subculture method, SA; type: cell-based; conditions: ATCC29213
Experimental: as §5

[19] = test system: T-47D (human breast cancer); assay: WST-1 proliferation assay, T47D; type: cell-based; conditions: Homo sapiens, T47D, 72 h exposure
Experimental: as §3, §4

[20] = test system: Mycobacterium smegmatis ATCC 700084; conditions: 3 days; for Conc.: lowest multiple of MBC with at least 70% inhibition of respiratory activity / Conc.: lowest multiple of MIC with at least 70% inhibition of respiratory activity: MTT; for M. smegmatis Respiration Inhibition: at the concentration (lowest multiple of MIC with at least 70% inhibition)
[21] = test system: methicillin-resistant S. aureus SA 630; assay: MBC, agar aliquot subculture method, MRSA2; type: cell-based; conditions: Staphylococcus aureus
Experimental: as §5

SMILES | MIC [1] [µM] | MIC [2] [µM] | IC50 [3] [µM] | MBC [4] [µM] | MIC [5] [µM] | MIC [6] [µM] | MIC [7] [µM] | MIC [8] [µM] | MBC [9] [µM] | IC50 [10] [µM] | MIC [11] [µM] | MIC [12] [µM] | IC50 [13] [µM] | MIC [14] [µM] | MBC [15] [µM] | MIC [16] [µM] | MBC [17] [µM] | MBC [18] [µM] | IC50 [19] [µM] | MBC [21] [µM] | further results
C[n+]1cc2c(c3ccccc31)Nc1ccc(OCc3cn(Cc4ccc([N+](=O)[O-])cc4)nn3)cc1S2 [2g, 5-Methyl-9-[1-(4-nitrobenzyl)-1H-1,2,3-triazol-4-yl]methoxy-12H-quino [3,4-b][1,4]benzothiazinium chloride] | 262 | 262 | 27.6 ± 0.6 | 65.5 | 131 | 524 | 32.7 | 65.5 | 65.5 | 8.4 ± 0.7 | 262 | 65.5 | 4.5 ± 0.3 | 262 | 131 | 262 | 262 | 262 | 11.8 ± 0.5 |  | 
C[n+]1cc2c(c3ccccc31)Nc1c(OCc3cn(CSc4ccccc4)nn3)cccc1S2 [2l, 5-Methyl-11-(1-(phenylthio)methyl-1H-1,2,3-triazol-4-yl)methoxy-12H-quino [3,4-b][1,4] benzothiazinium chloride] | 524 | 524 | > 100 | 16.3 | 524 | 524 | 16.3 | 32.7 | 32.7 | 9.6 ± 0.8 | 65.5 | 16.3 | 14.1 ± 0.6 | 65.5 | 16.3 | 65.5 | 131 | 65.5 | 4.3 ± 0.2 | 65.5 | Conc.: lowest multiple of MBC with at least 70% inhibition of respiratory activity [20]: 2× MIC (2× MBC); Conc.: lowest multiple of MIC with at least 70% inhibition of respiratory activity [20]: 2× MIC (2× MBC); M. smegmatis Respiration Inhibition [20]: 87.3%
C[n+]1cc2c(c3ccccc31)Nc1cc(OCc3cn(CSc4ccccc4)nn3)ccc1S2 [2k, 5-Methyl-10-(1-(phenylthio)methyl-1H-1,2,3-triazol-4-yl)methoxy-12H-quino [3,4-b][1,4] benzothiazinium chloride] | 524 | 524 | > 100 | 32.7 | 524 | > 524 | 32.7 | 16.3 | 16.3 | 6.1 ± 0.3 | 65.5 | 32.7 | 16.4 ± 0.9 | 65.5 | 32.7 | 65.5 | 65.5 | 65.5 | 10.6 ± 0.9 | 65.5 | 
C[n+]1cc2c(c3ccccc31)Nc1ccc(OCc3cn(Cc4ccccc4)nn3)cc1S2 [2d, 5-Methyl-9-(1-benzyl-1H-1,2,3-triazol-4-yl)methoxy-12H-quino [3,4-b][1,4]benzothiazinium chloride] | > 524 | > 524 | > 100 | 32.7 | > 524 | > 524 | 32.7 | 65.5 | 65.5 | 2.5 ± 0.1 | 131 | 32.7 | 6.3 ± 0.4 | 131 | 32.7 | 131 | 131 | 65.5 | 8.6 ± 0.7 | 131 | 
C[n+]1cc2c(c3ccccc31)Nc1cc(OCc3cn(Cc4ccc([N+](=O)[O-])cc4)nn3)ccc1S2 [2h, 5-Methyl-10-[1-(4-nitrobenzyl)-1H-1,2,3-triazol-4-yl]methoxy-12H-quino [3,4-b][1,4]benzothiazinium chloride] | > 524 | > 524 | > 100 | 16.3 | > 524 | > 524 | 16.3 | 131 | 131 | 9.3 ± 0.5 | 131 | 32.7 | 14.6 ± 0.6 | 262 | 32.7 | 262 | 262 | 131 | 6.3 ± 0.3 | 262 | Conc.: lowest multiple of MBC with at least 70% inhibition of respiratory activity [20]: 1× MIC (1× MBC); Conc.: lowest multiple of MIC with at least 70% inhibition of respiratory activity [20]: 1× MIC (1× MBC); viability of M. smegmatis at MIC value ([20]; Mycobacterium smegmatis): less than 70%; M. smegmatis Respiration Inhibition [20]: 81.4%
C[n+]1cc2c(c3ccccc31)Nc1cc(OCc3cn(Cc4ccccc4)nn3)ccc1S2 [2e, 5-Methyl-10-(1-benzyl-1H-1,2,3-triazol-4-yl)methoxy-12H-quino [3,4-b][1,4]benzothiazinium chloride] | 524 | 524 | 56.6 ± 4.2 | 32.7 | 524 | 524 | 32.7 | 16.3 | 16.3 | 3.4 ± 0.3 | 32.8 | 32.7 | 8.4 ± 0.6 | 65.5 | 32.7 | 65.5 | 65.5 | 65.5 | 12.5 ± 0.8 | 65.5 | 
